# Reference: US5300279A, “Organic amine phosphonic acid complexes for the treatment of calcific tumors” (The Dow Chemical Company, priority 1990, dated 1994)
# Experiments:
# [1] = biolocalization of the radionuclide in rats (tissue distribution after tail vein injection); format: in vivo, male Sprague Dawley rats; settings: for Bone/Blood / Bone/Muscle: ratio of percent dose per gram
# Method: Studies to determine the qualitative biodistribution of the various radionuclides were conducted by injecting the compositions into rats and obtaining the gamma ray images of the entire animal at various times up to two hours after injection.
# Laboratory rats were injected with the above complex (50-100 μl) via the tail vein. After 2 hours, the animals were sacrificed by cervical dislocation and organs and tissues removed. Samples were counted with a NaI counter to determine the biolocalization of the radionuclide.
# [2] = tested on: tumor; settings: female Irish Wolfhound, possible osteosarcoma; 0.97 mCi/kg
# Method: An English Setter with a tumor in his pelvis was injected with approximately 19 mCi of a composition containing Sm-153-EDTMP. After 2 hours, the dog was imaged using a scintillation camera.
# An Irish setter with undifferentiated sarcoma metastatic to bone was treated with 16 mCi (0.57 mCi/kg) of a composition containing Sm-153-EDTMP. […] After approximately 3 months, when signs of lameness began to reappear, the dog was given a second treatment of 15 mCi (0.49 mCi/kg), of a composition containing Sm-153-EDTMP.
# A female Irish Wolfhound with a possible osteosarcoma on the left distal radius was injected with a composition containing ^166 Ho-EDTMP (0.97 mCi/kg).
# [3] = localization of radioactivity (composition judged unacceptable); format: in vivo; settings: Sm-153; species not stated
# [4] = Yb-175, rats, two hour, average of 5 rats
# [5] = Sm-153, two hours, comparative, average of 5 rats (MDP, HEDP), 3 rats (PYP, IDP)
# [6] = Ho-166, Table X, time not stated, average of 3 rats
# [7] = Gd-159, two hour, average of five rats
# [8] = Ho-166, two hours, comparative, average of 2 rats (MDP, HEDP, PYP), 1 rat (IDP, HDP)
# [9] = Lu-177 (Ex. 14, 15; 5 rats) or Ho-166 (Ex. 16; 3 rats), two hour
# [10] = Sm-153, rats, 2 hours, average of 5 rats
structure (smiles),measurement,setting,value
O=P(O)(O)CN(CCO)CCN(CP(=O)(O)O)CP(=O)(O)O.[175Yb+3] [Example 11],% Dose in Blood,[1]; [4],0.231 % Dose
same,% Dose in Liver,[1]; [4],0.214 % Dose
same,% Dose in Skeleton,[1]; [4],56 % Dose
same,Bone/Blood,[1]; [4],190
same,Bone/Muscle,[1]; [4],572
"CC(O)(P(=O)(O)O)P(=O)(O)O.[153Sm+3] [Sm-153 HEDP, reference compound]",% Dose In Blood,[1]; [5],13 % Dose
same,% Dose In Bone,[1]; [5],21 % Dose
same,% Dose In Liver,[1]; [5],3.5 % Dose
same,Bone/Blood,"[1]; Sm-153, two hours, comparative",1
same,Bone/Muscle,"[1]; Sm-153, two hours, comparative",11
CC(C)N(CCN(CP(=O)(O)O)CP(=O)(O)O)CP(=O)(O)O.[166Ho+3] [Example 31],% Dose in Blood,[1]; [6],0.22 % Dose
same,% Dose in Kidney,[1]; [6],0.44 % Dose
same,% Dose in Liver,[1]; [6],0.28 % Dose
same,% Dose in Muscle,[1]; [6],0.68 % Dose
same,% Dose in Skeleton,[1]; [6],65 % Dose
same,% Dose in Spleen,[1]; [6],0.01 % Dose
same,Bone/Blood,[1]; [6],245
same,Bone/Muscle,[1]; [6],520
O=P(O)(O)CN(CCN(CP(=O)(O)O)CP(=O)(O)O)CP(=O)(O)O.[159Gd+3] [Example 19],% Dose in Blood,[1]; [7],0.15 % Dose
same,% Dose in Kidneys,[1]; [7],0.33 % Dose
same,% Dose in Liver,[1]; [7],0.25 % Dose
same,% Dose in Muscle,[1]; [7],0.56 % Dose
same,% Dose in Skeleton,[1]; [7],57 % Dose
same,Bone/Blood,[1]; [7],305
same,Bone/Muscle,[1]; [7],577
"O=P(O)(O)C(O)P(=O)(O)O.[166Ho+3] [H0-166 HDP, reference compound]",% Dose In Blood,[1]; [8],0.04 % Dose
same,% Dose In Bone,[1]; [8],0.2 % Dose
same,% Dose In Liver,[1]; [8],2 % Dose
same,Bone/Blood,"[1]; Ho-166, two hours, comparative",4
same,Bone/Muscle,"[1]; Ho-166, two hours, comparative",4
O=P(O)(O)CN(CCN(CP(=O)(O)O)CP(=O)(O)O)CP(=O)(O)O.[177Lu+3] [Example 14],% Dose in Blood,[1]; [9],0.10 % Dose
same,% Dose in Kidneys,[1]; [9],0.28 % Dose
same,% Dose in Liver,[1]; [9],0.48 % Dose
same,% Dose in Muscle,[1]; [9],0.44 % Dose
same,% Dose in Skeleton,[1]; [9],51 % Dose
same,Bone/Blood,[1]; [9],500
same,Bone/Muscle,[1]; [9],1380
"CC(O)(P(=O)(O)O)P(=O)(O)O.[166Ho+3] [Ho-166 HEDP, reference compound]",% Dose In Blood,[1]; [8],10.1 % Dose
same,% Dose In Bone,[1]; [8],25 % Dose
same,% Dose In Liver,[1]; [8],1.8 % Dose
same,Bone/Blood,"[1]; Ho-166, two hours, comparative",2
same,Bone/Muscle,"[1]; Ho-166, two hours, comparative",17
CN(CCN(CP(=O)(O)O)CP(=O)(O)O)CP(=O)(O)O.[166Ho+3] [Example 29],% Dose in Blood,[1]; [6],0.12 % Dose
same,% Dose in Kidney,[1]; [6],0.30 % Dose
same,% Dose in Liver,[1]; [6],0.14 % Dose
same,% Dose in Muscle,[1]; [6],0.34 % Dose
same,% Dose in Skeleton,[1]; [6],68 % Dose
same,% Dose in Spleen,[1]; [6],0.01 % Dose
same,Bone/Blood,[1]; [6],470
same,Bone/Muscle,[1]; [6],1133
O=P(O)(O)CN(CCO)CCN(CP(=O)(O)O)CP(=O)(O)O.[159Gd+3] [Example 20],% Dose in Blood,[1]; [7],0.14 % Dose
same,% Dose in Kidneys,[1]; [7],0.58 % Dose
same,% Dose in Liver,[1]; [7],0.57 % Dose
same,% Dose in Muscle,[1]; [7],0.76 % Dose
same,% Dose in Skeleton,[1]; [7],60 % Dose
same,Bone/Blood,[1]; [7],335
same,Bone/Muscle,[1]; [7],548
O=P(O)(O)CN(CCN(CP(=O)(O)O)CP(=O)(O)O)CCN(CP(=O)(O)O)CP(=O)(O)O.[175Yb+3] [Example 10],% Dose in Blood,[1]; [4],0.116 % Dose
same,% Dose in Liver,[1]; [4],0.112 % Dose
same,% Dose in Skeleton,[1]; [4],25 % Dose
same,Bone/Blood,[1]; [4],179
same,Bone/Muscle,[1]; [4],366
"O=P(O)(O)CP(=O)(O)O.[153Sm+3] [Sm-153 MDP, reference compound]",% Dose In Blood,[1]; [5],0.23 % Dose
same,% Dose In Bone,[1]; [5],2 % Dose
same,% Dose In Liver,[1]; [5],85 % Dose
same,Bone/Blood,"[1]; Sm-153, two hours, comparative",9
same,Bone/Muscle,"[1]; Sm-153, two hours, comparative",7
O=P(O)(O)CN(CCN(CP(=O)(O)O)CP(=O)(O)O)CP(=O)(O)O.[166Ho+3] [Example 16],% Dose in Blood,[1]; [9],0.03 % Dose
same,% Dose in Kidneys,[1]; [9],0.26 % Dose
same,% Dose in Liver,[1]; [9],0.05 % Dose
same,% Dose in Muscle,[1]; [9],0.10 % Dose
same,% Dose in Skeleton,[1]; [9],48 % Dose
same,Bone/Blood,[1]; [9],1114
same,Bone/Muscle,[1]; [9],2292
same,additional survival,[2],9 months
same,survival compared with usual expected life,[2],greater than the usual expected life of a dog with osteosarcoma
O=P(O)(O)CN(CCN(CCN(CP(=O)(O)O)CP(=O)(O)O)CCN(CP(=O)(O)O)CP(=O)(O)O)CP(=O)(O)O.[153Sm+3] [Example 8],% Dose in Blood,[1]; [10],0.25 % Dose
same,% Dose in Liver,[1]; [10],0.18 % Dose
same,% Dose in Skeleton,[1]; [10],28 % Dose
same,% Dose in Urine,[1]; [10],65 % Dose
same,Bone/Blood,[1]; [10],80
same,Bone/Muscle,[1]; [10],410
O=P(O)(O)CN(CCN(CP(=O)(O)O)CP(=O)(O)O)CCN(CP(=O)(O)O)CP(=O)(O)O.[153Sm+3] [Example 4],% Dose in Blood,[1]; [10],0.16 % Dose
same,% Dose in Liver,[1]; [10],0.27 % Dose
same,% Dose in Skeleton,[1]; [10],30 % Dose
same,% Dose in Urine,[1]; [10],74 % Dose
same,Bone/Blood,[1]; [10],224
same,Bone/Muscle,[1]; [10],220
"O=P(O)(O)NP(=O)(O)O.[166Ho+3] [Ho-166 IDP, reference compound]",% Dose In Blood,[1]; [8],0.28 % Dose
same,% Dose In Bone,[1]; [8],2 % Dose
same,% Dose In Liver,[1]; [8],65 % Dose
same,Bone/Blood,"[1]; Ho-166, two hours, comparative",6
same,Bone/Muscle,"[1]; Ho-166, two hours, comparative",17
O=P(O)(O)CN(CCO)CCN(CP(=O)(O)O)CP(=O)(O)O.[177Lu+3] [Example 15],% Dose in Blood,[1]; [9],0.17 % Dose
same,% Dose in Kidneys,[1]; [9],0.30 % Dose
same,% Dose in Liver,[1]; [9],1.9 % Dose
same,% Dose in Muscle,[1]; [9],0.56 % Dose
same,% Dose in Skeleton,[1]; [9],58 % Dose
same,Bone/Blood,[1]; [9],370
same,Bone/Muscle,[1]; [9],570
O=P(O)(O)CN(CP(=O)(O)O)CP(=O)(O)O.[175Yb+3] [Example 13],% Dose in Blood,[1]; [4],0.204 % Dose
same,% Dose in Liver,[1]; [4],0.236 % Dose
same,% Dose in Skeleton,[1]; [4],63 % Dose
same,Bone/Blood,[1]; [4],256
same,Bone/Muscle,[1]; [4],876
O=P(O)(O)CN(CCN(CP(=O)(O)O)CP(=O)(O)O)Cc1ccccc1.[166Ho+3] [Example 33],% Dose in Blood,[1]; [6],0.09 % Dose
same,% Dose in Kidney,[1]; [6],0.34 % Dose
same,% Dose in Liver,[1]; [6],0.13 % Dose
same,% Dose in Muscle,[1]; [6],0.31 % Dose
same,% Dose in Skeleton,[1]; [6],65 % Dose
same,% Dose in Spleen,[1]; [6],0.01 % Dose
same,Bone/Blood,[1]; [6],542
same,Bone/Muscle,[1]; [6],1093
"O=P(O)(O)OP(=O)(O)O.[166Ho+3] [Ho-166 PYP, reference compound]",% Dose In Blood,[1]; [8],0.63 % Dose
same,% Dose In Bone,[1]; [8],3 % Dose
same,% Dose In Liver,[1]; [8],67 % Dose
same,Bone/Blood,"[1]; Ho-166, two hours, comparative",4
same,Bone/Muscle,"[1]; Ho-166, two hours, comparative",13
O=P(O)(O)CN(CCN(CP(=O)(O)O)CP(=O)(O)O)CP(=O)(O)O.[175Yb+3] [Example 9],% Dose in Blood,[1]; [4],0.074 % Dose
same,% Dose in Liver,[1]; [4],0.138 % Dose
same,% Dose in Skeleton,[1]; [4],50 % Dose
same,Bone/Blood,[1]; [4],562
same,Bone/Muscle,[1]; [4],619
"O=P(O)(O)OP(=O)(O)O.[153Sm+3] [Sm-153 PYP, reference compound]",% Dose In Blood,[1]; [5],0.23 % Dose
same,% Dose In Bone,[1]; [5],2 % Dose
same,% Dose In Liver,[1]; [5],73 % Dose
same,Bone/Blood,"[1]; Sm-153, two hours, comparative",7
same,Bone/Muscle,"[1]; Sm-153, two hours, comparative",15
"O=P(O)(O)NP(=O)(O)O.[153Sm+3] [Sm-153 IDP, reference compound]",% Dose In Blood,[1]; [5],0.04 % Dose
same,% Dose In Bone,[1]; [5],0.6 % Dose
same,% Dose In Liver,[1]; [5],36 % Dose
same,Bone/Blood,"[1]; Sm-153, two hours, comparative",11
same,Bone/Muscle,"[1]; Sm-153, two hours, comparative",8
O=P(O)(O)CN(CCO)CP(=O)(O)O.[153Sm+3],localization of radioactivity in the liver,[3],a significant portion of the radioactivity localized in the liver
O=P(O)(O)CN(CCO)CCN(CP(=O)(O)O)CP(=O)(O)O.[153Sm+3] [Example 6],% Dose in Blood,[1]; [10],0.035 % Dose
same,% Dose in Liver,[1]; [10],0.45 % Dose
same,% Dose in Skeleton,[1]; [10],57 % Dose
same,% Dose in Urine,[1]; [10],50 % Dose
same,Bone/Blood,[1]; [10],1300
same,Bone/Muscle,[1]; [10],1300
"O=P(O)(O)CP(=O)(O)O.[166Ho+3] [Ho-166 MDP, reference compound]",% Dose In Blood,[1]; [8],1.5 % Dose
same,% Dose In Bone,[1]; [8],1 % Dose
same,% Dose In Liver,[1]; [8],64 % Dose
same,Bone/Blood,"[1]; Ho-166, two hours, comparative",0.5
same,Bone/Muscle,"[1]; Ho-166, two hours, comparative",6
